Key:
[1] = tested on: activated CD4+ T cells; test: IL-2 withdrawal assay and assessment of cell viability, CD4+ T cells; assay type: cell-based, human; conditions: for survival of activated CD4+ T cells in the absence of exogenous cytokines: metabolites 3 mM, except for spermidine 0.1 mM, 5 days after IL-2 withdrawal
Experimental: Naïve CD4 T cells were activated with plate-bound CD3 and CD28 antibodies. 48 h after activation IL-2 was added to culture media (500 U ml^−1). After a further 3 days of culturing, cells were washed, counted and equal cell numbers were plated in medium devoid of IL-2. The withdrawal medium was no longer supplemented with e.g. L-arginine. Cell viability was assessed with annexin V.

[2] = tested on: 96 h-activated T cells; test: 13C-L-arginine metabolic tracing (metabolic flux experiments); assay type: cell-based, human; conditions: addition of arginase inhibitor, 13C6-L-arginine pulse
Experimental: FIG. 2. L-arginine is rapidly metabolized upon activation (A) Intracellular abundance of L-arginine in non-activated (non-act) and activated naïve CD4^+ T cells (CD3+CD28 antibodies). Boxplot, n=30 from three donors, each in a different color; a.u. arbitrary units. (B) Kinetics of ^3H-L-arginine uptake during a 15 min pulse. Box plot, n=5 from three donors. (C) Uptake, proteome incorporation and intracellular abundance of the indicated amino acids. Barplot (left): 5×10^4 cells were activated for 4 days and consumption of amino acids from medium was analyzed. Essential amino acids are in grey; n=4 from four donors, error bars represent s.e.m. […] Heat map (right): Intracellular amino acid abundance relative to naive T cells over time as determined by MS; n=30 from three donors. […] Black dots are metabolites that were not detected by MS. Only enzymes that were detected by MS are shown. […] 96 h-activated T cells were pulsed with ^13C6-L-arginine and the metabolic fate was analyzed by LC-MS/MS at different time points. AFL, Apparent fractional labeling; n=4 from two donors. ^13C Citrulline was not detected.
Naïve CD4^+ T cells were activated and 4 days, later extensively washed and pulsed with L-arginine free RPMI medium containing 1 mM [U-^13C]-L-Arginine hydrochloride (Sigma). […] Metabolites were extracted and analyzed by HILIC LC-MS/MS. […]

[3] = tested on: C56BL/6 wild type (Wt) or Arg2−/− T cells; test: In vitro T cell survival with wild type or Arg2-/- mouse T cells; assay type: cell-based; conditions: norNOHA 500 μM, 2 days after IL-2 withdrawal
[4] = tested on: arginase; conditions: arginase inhibition; cited from earlier work
[5] = tested on: activated CD4+ T cells; test: 3H-arginine uptake assay and calculation of proteome incorporation; assay type: cell-based, human; conditions: 3 mM added as competitive uptake inhibitor, 15 minutes pulse, 3 day-activated CD4+ T cells
Experimental: (§1) FIG. 10. […] (A) Kinetics of T cell proliferation. Human naïve CD4+ T cells were labeled with CellTraceViolet (CTV) and activated in Ctrl medium or in L-Arg medium or in medium supplemented with 3 mM D-arginine or 3 mM L-arginine together with 3 mM L-lysine. Cell divisions were monitored at 48 h and 72 h by flow cytometry. (B) CTV-labeled CD4+ T cells were activated in normal medium or L-Arg medium and the dilution of CTV was measured over time by flow cytometry. n=5 from two donors. (C) 3H-L-arginine uptake by 3 day-activated CD4+ T cells during a 15 minutes pulse. Where indicated, 3 mM L-arginine, D-arginine or L-lysine was added to the culture medium as a competitive uptake inhibitor. n=7 for control, n=9 for L-Arg, n=5 for D-Arg, and n=9 for L-Lys. Bars represent the s.e.m.

[6] = tested on: human naïve CD4+ T cells; test: T cell proliferation (CellTrace Violet dilution); assay type: cell-based
Experimental: as §1

[7] = tested on: human naïve CD4+ T cells; test: kinetic metabolome analysis of activated T cells; assay type: cell-based; conditions: added to the culture medium at the same concentration as L-arginine (3 mM)
Experimental: (B) Differential analysis of the glycolytic pathway between naïve CD4^+ T cells cultured in L-Arg medium or Ctrl medium, 96 h after activation. Log 2 fold changes of proteins and metabolites are color-coded. […] 3-P-Glycerate and 2-P-Glycerate could not be distinguished as they have the same mass. (C) 72 h-activated T cells were plated in fresh medium and glucose consumption was determined enzymatically after 24 h; n=9 from three donors. (D) Seahorse experiment performed with activated (96 h) T cells from one donor. Oligomycin was injected after 56 min, FCCP after 96 min, and antimycin (to inhibit the respiratory chain) after 136 min. Data are representative of 5 independent experiments with different donors.
(A) Human naïve CD4^+ T cells were activated in normal medium or in L-Arg medium. Nitric oxide formation was measured using DAF-FM diacetate at different time points.
Naïve CD4^+ T cells were either analyzed directly after isolation or at different time points after activation with CD3 and CD28 antibodies. Cells were washed twice in 96-well plates with 75 mM ammonium carbonate at pH 7.4 and snap frozen in liquid nitrogen. Metabolites were extracted three times with hot (>70° C.) 70% ethanol. Extracts were analyzed by flow injection—time of flight mass spectrometry on an Agilent 6550 QTOF instrument operated in the negative mode, as described previously (Fuhrer et al., 2011). Typically 5,000-12,000 ions with distinct mass-to-charge (m/z) ratio could be identified in each batch of samples. Ions were putatively annotated by matching their measured mass to that of the compounds listed by the KEGG database for Homo sapiens, allowing a tolerance of 0.001 Da. Only deprotonated ions (without adducts) were considered in the analysis. In case of multiple matching, such as in the case of structural isomers, all candidates were retained.

NCCCCNCCCN [spermidine]
survival of activated CD4+ T cells in the absence of exogenous cytokines [1]: decreased T cell survival

NC(N)=O [urea]
survival of activated CD4+ T cells in the absence of exogenous cytokines [1]: had no effect

N=C(NO)NCC[C@H](N)C(=O)O [norNOHA, N^ω-Hydroxy-nor-L-arginine]
conversion of L-arginine into agmatine [2]: did not affect
conversion of L-arginine into ornithine, putrescine, spermidine and proline [2]: markedly reduced
survival of Arg2−/− T cells after IL-2 withdrawal [3]: did not affect survival
survival of wild type T cells after IL-2 withdrawal [3]: increasing the survival
intracellular L-arginine levels [4]: increase intracellular L-arginine levels

O=C(O)[C@@H]1CCCN1 [proline, L-proline]
survival of activated CD4+ T cells in the absence of exogenous cytokines [1]: had no effect

N=C(N)NCCCCN [agmatine]
survival of activated CD4+ T cells in the absence of exogenous cytokines [1]: decreased T cell survival

NCCCC[C@H](N)C(=O)O [L-lysine]
L-arginine uptake [5]: inhibit L-arginine uptake
onset of proliferation ([6]; 3 mM L-lysine added to L-arginine-supplemented cultures): not affected
survival of activated CD4+ T cells in the absence of exogenous cytokines [1]: decreased T cell survival significantly

NC(=O)NCCC[C@H](N)C(=O)O [L-citrulline, reference compound]
effects on metabolism [7]: only had minor effects
survival of activated CD4+ T cells in the absence of exogenous cytokines [1]: had no effect

CN(CC(=O)O)C(=N)N [creatine]
survival of activated CD4+ T cells in the absence of exogenous cytokines [1]: had no effect

NCCCCN [putrescine]
survival of activated CD4+ T cells in the absence of exogenous cytokines [1]: decreased T cell survival

NC(=O)C1CCCc2c1[nH]c1ccc(Cl)cc21 (centres unmarked) [Ex-527]
L-arginine-mediated increase in survival in the presence of the Sirtuin-1 inhibitor ([1]; Ex-527 5 μM added at activation): comparable to controls

N=C(N)NCCC[C@@H](N)C(=O)O [D-arginine]
L-arginine uptake [5]: inhibit L-arginine uptake
onset of proliferation ([6]; 3 mM in medium): not affected
survival of activated CD4+ T cells in the absence of exogenous cytokines [1]: decreased T cell survival significantly

Cl.N=C(N)NCCC[C@H](N)C(=O)O [L-arginine-HCl, L-arginine hydrochloride]
survival of activated CD4+ T cells in the absence of exogenous cytokines [1]: enhanced T cell survival to a similar extent

N[C@@H](CSCCB(O)O)C(=O)O [BEC, S-(2-boronoethyl)-L-cysteine]
intracellular L-arginine levels [4]: increase intracellular L-arginine levels

[N]=O [nitric oxide]
T cell survival (role of nitric oxide) ([1]; nitric oxide synthase inhibitors DiMeArg or L-NAME at 1 mM): had no effect

Source: patent publication US11167015B2, “Arginine and its use as a T cell modulator” (INSTITUTE FOR RESEARCH IN BIOMEDICINE, priority 2016, dated 2021)
